For 28 compounds, IC50 results are on record in patent US8637525B2, “Compounds for the reduction of beta-amyloid production” (Bristol-Myers Squibb Company, priority 2009, dated 2014).

Counter-ions that a name gives are not always drawn.

The first assay has as its system Aβ1-42 production. The experiment in a line: Cellular assay for inhibition of Aβ1-42 production (H4 APP751 SWE clone 8.20). Particulars: 19 h, H4 APP751 SWE clone 8.20 cells, 19 h incubation; class symbols; read-out: Activity Rating (Aβ42 cellular IC50). The assay is classed as cell-based. The essentials: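 Compound-treated cells were incubated 19 h at 37 °C in 5% CO2. Aβ42 in the cell plate was detected overnight at 4 °C with an Aβ42 neoepitope antibody (565, Wallac-labelled, 0.8 ng/well) plus N-terminal antibody 26D6 (APC, 75 ng/well) in 40 mM Tris-HCl pH 7.4, 0.2% BSA. IC50s came from curve fitting.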
In the case of `CNc1nc(Nc2ccc(-n3cnc(Cl)n3)c(OC)c2)nc2c1CCC2c1cc(F)c(F)c(F)c1` (stereo not shown) [Example 106, N^2-(4-(3-chloro-1H-1,2,4-triazol-1-yl)-3-methoxyphenyl)-N^4-methyl-7-(3,4,5-trifluorophenyl)-6,7-dihydro-5H-cyclopenta[d]pyrimidine-2,4-diamine], the IC50 lay in the range of 10 to 100 nM. In the case of `CNc1nc(Nc2ccc(-n3cnc(C)n3)c(F)c2)nc2c1CN(C)CC2c1ccccc1` (stereo not shown) [Example 149, N2-(3-fluoro-4-(3-methyl-1H-1,2,4-triazol-1-yl)phenyl)-N4,6-dimethyl-8-phenyl-5,6,7,8-tetrahydropyrido[4,3-d]pyrimidine-2,4-diamine], the IC50 lay within 10 to 100 nM. Take `CCN(C)c1nc(Nc2ccc(-n3cnc(Cl)c3)c(OC)c2)nc2c1COCC2c1ccc(F)cc1` (racemic) [Example 62, N2-(4-(4-chloro-1H-imidazol-1-yl)-3-methoxyphenyl)-N4-ethyl-8-(4-fluorophenyl)-N4-methyl-7,8-dihydro-5H-pyrano[4,3-d]pyrimidine-2,4-diamine]: the half-inhibitory concentration (IC50) is 10 to 100 nM. Turning to `COc1cc(Nc2nc3c(c(N4CC(F)(F)C4)n2)CN(S(C)(=O)=O)CC3c2ccc(F)cc2)ccc1-n1cnc(Cl)c1` (stereo not shown) [Example 160, N-(4-(4-chloro-1H-imidazol-1-yl)-3-methoxyphenyl)-4-(3,3-difluoroazetidin-1-yl)-8-(4-fluorophenyl)-6-(methylsulfonyl)-5,6,7,8-tetrahydropyrido[4,3-d]pyrimidin-2-amine], the IC50 fell in the range of 10 to 100 nM. Regarding `CCNc1nc(Nc2ccc(-n3cnc(Cl)c3)c(OC)c2)nc2c1CCOC2c1ccc(F)cc1` (racemic) [Example 88, N2-(4-(4-chloro-1H-imidazol-1-yl)-3-methoxyphenyl)-N4-ethyl-8-(4-fluorophenyl)-6,8-dihydro-5H-pyrano[3,4-d]pyrimidine-2,4-diamine], the IC50 lay in the range of 10 to 100 nM.

For the compound `CNc1nc(Nc2ccc(-n3cnc(Cl)c3)c(OC)c2)nc2c1COCC2c1ccc(F)c(F)c1` (racemic) [Example 115, N2-(4-(4-chloro-1H-imidazol-1-yl)-3-methoxyphenyl)-8-(3,4-difluorophenyl)-N4-methyl-7,8-dihydro-5H-pyrano[4,3-d]pyrimidine-2,4-diamine, TFA], the IC50 is 1.5 to 9.9 nM. Same read-out and setting: then `CNc1nc(Nc2ccc(-n3ncnc3C)c(F)c2)nc2c1CN(C)CC2c1ccccc1` (stereo not shown) [Example 150, N2-(3-fluoro-4-(5-methyl-1H-1,2,4-triazol-1-yl)phenyl)-N4,6-dimethyl-8-phenyl-5,6,7,8-tetrahydropyrido[4,3-d]pyrimidine-2,4-diamine], with 10 to 100 nM; and `CNc1nc(Nc2ccc(-n3cnc(Cl)c3)c(OC)c2)nc2c1CCCC2(O)c1ccccc1` (stereo not shown) [Example 178, 2-(4-(4-chloro-1H-imidazol-1-yl)-3-methoxyphenylamino)-4-(methylamino)-8-phenyl-5,6,7,8-tetrahydroquinazolin-8-ol], with 1.5 to 9.9 nM. Regarding `CNc1nc(Nc2ccc(C3(C#N)CC3)cc2)nc2c1CCC2c1ccccc1` (stereo not shown) [Example 247, 1-(4-(4-(methylamino)-7-phenyl-6,7-dihydro-5H-cyclopenta[d]pyrimidin-2-ylamino)phenyl)cyclopropanecarbonitrile], the IC50 was in the range of 100 to 1000 nM.

For `COc1cc(Nc2nc3c(c(N4CCC(F)C4)n2)COCC3c2ccc(F)cc2)ccc1-n1cnc(Cl)c1` (stereo in doubt) [Example 58A, N-(4-(4-chloro-1H-imidazol-1-yl)-3-methoxyphenyl)-8-(4-fluorophenyl)-4-((S)-3-fluoropyrrolidin-1-yl)-7,8-dihydro-5H-pyrano[4,3-d]pyrimidin-2-amine], the half-maximal inhibitory concentration (IC50) was in the range of 1.5 to 9.9 nM. Same read-out and setting: the same measure for `CNc1nc(Nc2ccc(-n3cnc(Cl)c3)c(OC)c2)nc2c1CCC2c1cc(F)c(F)c(F)c1` (racemic) [Example 103, N^2-(4-(4-chloro-1H-imidazol-1-yl)-3-methoxyphenyl)-N^4-methyl-7-(3,4,5-trifluorophenyl)-6,7-dihydro-5H-cyclopenta[d]pyrimidine-2,4-diamine]: 1.5 to 9.9 nM. In the case of `CNc1nc(Nc2ccc(C#N)cc2)nc2c1CCC2c1ccccc1` (stereo not shown) [Example 226, 4-(4-(methylamino)-7-phenyl-6,7-dihydro-5H-cyclopenta[d]pyrimidin-2-ylamino)benzonitrile], the half-inhibitory concentration (IC50) was 100 to 1000 nM.

The assay is the same for the next values; noted with them: 19 h, H4 APP751 SWE clone 8.20 cells, 19 h incubation; read-out: Activity Rating (Aβ42 cellular IC50), numeric value.
For `CNc1nc(Nc2ccc3nc[nH]c3c2)nc2c1CCC2c1ccccc1` (stereo not shown) [Example 253, N2-(1H-benzo[d]imidazol-6-yl)-N4-methyl-7-phenyl-6,7-dihydro-5H-cyclopenta[d]pyrimidine-2,4-diamine], the half-maximal inhibitory concentration (IC50) turned out to be 5900 nM. `COc1cc(Nc2nc3c(c(N4CC(OC)C4)n2)CCC3c2ccccc2)ccc1-n1cnc(Cl)c1` (stereo not shown) [Example 183, N-(4-(4-chloro-1H-imidazol-1-yl)-3-methoxyphenyl)-4-(3-methoxyazetidin-1-yl)-7-phenyl-6,7-dihydro-5H-cyclopenta[d]pyrimidin-2-amine]: the half-inhibitory concentration (IC50) stood at 11 nM. Same read-out and setting: the same measure for `CCNc1nc(Nc2ccc(-n3cnc(Cl)c3)c(OC)c2)nc2c1COCC2c1ccc(C#N)cc1` (stereo not shown) [Example 121B, 4-(2-(4-(4-chloro-1H-imidazol-1-yl)-3-methoxyphenylamino)-4-(ethylamino)-7,8-dihydro-5H-pyrano[4,3-d]pyrimidin-8-yl)benzonitrile]: 120 nM; for `CNc1nc(Nc2cncnc2)nc2c1CCC2c1ccccc1` (stereo not shown) [Example 223, N4-methyl-7-phenyl-N2-(pyrimidin-5-yl)-6,7-dihydro-5H-cyclopenta[d]pyrimidine-2,4-diamine]: 11000 nM; for `CNc1nc(Nc2ccc(-c3cccnc3)c(OC)c2)nc2c1CCC2c1ccccc1` (stereo not shown) [Example 263, N2-(3-methoxy-4-(pyridin-3-yl)phenyl)-N4-methyl-7-phenyl-6,7-dihydro-5H-cyclopenta[d]pyrimidine-2,4-diamine]: 32 nM.

Consider `CNc1nc(Nc2ccc(Br)c(C#N)c2)nc2c1CCC2c1ccccc1` (stereo not shown) [Example 242, 2-bromo-5-(4-(methylamino)-7-phenyl-6,7-dihydro-5H-cyclopenta[d]pyrimidin-2-ylamino)benzonitrile], for which the IC50 stood at 67 nM.

Staying with this assay, now noted: H4 APP751 SWE clone 8.20 cells, 19 h incubation; class symbols; read-out: Activity Rating (Aβ42 cellular IC50).
For the compound `COc1cc(Nc2nc3c(c(N4CC(Cl)C4)n2)CCC3c2ccccc2)ccc1-n1cnc(Cl)c1` (stereo not shown) [Example 181A, N-(4-(4-chloro-1H-imidazol-1-yl)-3-methoxyphenyl)-4-(3-chloroazetidin-1-yl)-7-phenyl-6,7-dihydro-5H-cyclopenta[d]pyrimidin-2-amine], the half-maximal inhibitory concentration (IC50) lay within 1.5 to 9.9 nM. On the same count and under the same terms, the same measure for `CNc1nc(Nc2ccc(-n3ncnc3C)c(F)c2)nc2c1CCC2c1ccccc1` (single isomer, unassigned) [Example 3B, N^2-(3-fluoro-4-(5-methyl-1H-1,2,4-triazol-1-yl)phenyl)-N^4-methyl-7-phenyl-6,7-dihydro-5H-cyclopenta[d]pyrimidine-2,4-diamine]: 10 to 100 nM; for `COc1cc(Nc2nc3c(c(N4C[C@@H](C)O[C@@H](C)C4)n2)CCC3c2ccc(F)cc2)ccc1-n1cnc(Cl)c1` (single isomer, unassigned) [Example 21A]: 10 to 100 nM; for `CCNc1nc(Nc2ccc(-n3cnc(Cl)c3)c(OC)c2)nc2c1CCC2c1ccc(OC(F)(F)F)cc1` (single isomer, unassigned) [Example 98B, N^2-(4-(4-Chloro-1H-imidazol-1-yl)-3-methoxyphenyl)-N^4-ethyl-7-(4-(trifluoromethoxy)phenyl)-6,7-dihydro-5H-cyclopenta[d]pyrimidine-2,4-diamine]: 10 to 100 nM. In the case of `CCNc1nc(Nc2ccc(-n3cnc(Cl)c3)c(OC)c2)nc2c1CN(S(=O)(=O)CC)CC2c1ccccc1` (stereo not shown) [Example 138A, N2-(4-(4-chloro-1H-imidazol-1-yl)-3-methoxyphenyl)-N4-ethyl-6-(ethylsulfonyl)-8-phenyl-5,6,7,8-tetrahydropyrido[4,3-d]pyrimidine-2,4-diamine], the IC50 was 1.5 to 9.9 nM. On to `CCN(C)c1nc(Nc2ccc(-n3cnc(Cl)c3)c(OC)c2)nc2c1CCC2c1ccccc1` (single isomer, unassigned) [Example 5A, N^2-(4-(4-chloro-1H-imidazol-1-yl)-3-methoxyphenyl)-N^4-ethyl-N^4-methyl-7-phenyl-6,7-dihydro-5H-cyclopenta[d]pyrimidine-2,4-diamine], for which the 50% inhibitory concentration (IC50) lay in the range of 1.5 to 9.9 nM. Regarding `COc1cc(Nc2nc3c(c(N4CC(F)(F)C4)n2)COCC3c2ccc(F)cc2)ccc1-n1cnc(Cl)c1` (stereo not shown) [Example 63B, N-(4-(4-chloro-1H-imidazol-1-yl)-3-methoxyphenyl)-4-(3,3-difluoroazetidin-1-yl)-8-(4-fluorophenyl)-7,8-dihydro-5H-pyrano[4,3-d]pyrimidin-2-amine], the IC50 was in the range of 100 to 1000 nM. The same measure, in the same setting: the same measure for `CCC1CCCN1c1nc(Nc2ccc(-n3cnc(Cl)c3)c(OC)c2)nc2c1CCC2c1ccc(F)cc1` (single isomer, unassigned) [Example 23, N-(4-(4-chloro-1H-imidazol-1-yl)-3-methoxyphenyl)-4-(2-ethylpyrrolidin-1-yl)-7-(4-fluorophenyl)-6,7-dihydro-5H-cyclopenta[d]pyrimidin-2-amine]: 10 to 100 nM; for `COc1cc(Nc2nc3c(c(N4CC(OC)C4)n2)CCC3c2ccccc2)ccc1-n1cnc(Cl)c1` (single isomer, unassigned) [Example 183B, N-(4-(4-chloro-1H-imidazol-1-yl)-3-methoxyphenyl)-4-(3-methoxyazetidin-1-yl)-7-phenyl-6,7-dihydro-5H-cyclopenta[d]pyrimidin-2-amine]: 10 to 100 nM. `CCNc1nc(Nc2ccc(-n3ncnc3C)c(F)c2)nc2c1COCC2c1ccc(F)c(F)c1` (stereo not shown) [Example 116A, 8-(3,4-difluorophenyl)-N4-ethyl-N2-(3-fluoro-4-(5-methyl-1H-1,2,4-triazol-1-yl)phenyl)-7,8-dihydro-5H-pyrano[4,3-d]pyrimidine-2,4-diamine]: the IC50 lay in the range of 1.5 to 9.9 nM.
